Experimental data published in BindingDB's records for doi:10.1021/jm00072a005 (University of Paris, 1993).

Columns and labels:
[1] = target: Gastrin/cholecystokinin type B receptor (Cavia porcellus); test: Tested for inhibition of [3H]pCCK-8 specific binding to cholecystokinin type B receptor in guinea pig brain cortex
[2] = target: Cholecystokinin receptor type A (Rattus norvegicus) (UniProt P30551); test: Tested for binding affinity towards cholecystokinin type A receptor in rat pancreas by displacement of [3H]pCCK-8 radioligand
[3] = target: Gastrin/cholecystokinin type B receptor (Cavia porcellus); test: Tested for inhibition of [3H]pCCK-8 specific binding to cholecystokinin type B receptor in guinea pig brain cortex; remark: listed apart in the source

Ki [1] [nM]	SMILES	also measured
27	CC(Cc1c[nH]c2ccccc12)(NC(=O)OC1[C@H]2C[C@@H]3C[C@@H](C[C@H]1C3)C2)C(=O)NCCc1ccc(Cl)cc1Cl (stereo partly drawn) [[1-[2-(2,4-Dichloro-phenyl)-ethylcarbamoyl]-2-(1H-indol-3-yl)-1-methyl-ethyl]-carbamic acid adamantan-2-yl ester]	–
543	CCOC(=O)CN(CCc1ccccc1)C(=O)C(C)(Cc1c[nH]c2ccccc12)NC(=O)OC1[C@H]2C[C@@H]3C[C@@H](C[C@H]1C3)C2 (stereo partly drawn) [{[2-(Adamantan-2-yloxycarbonylamino)-3-(1H-indol-3-yl)-2-methyl-propionyl]-phenethyl-amino}-acetic acid ethyl ester]	–
231	CC(Cc1c[nH]c2ccccc12)(NC(=O)OC1[C@H]2C[C@@H]3C[C@@H](C[C@H]1C3)C2)C(=O)NCc1ccccc1 (stereo partly drawn) [[1-Benzylcarbamoyl-2-(1H-indol-3-yl)-1-methyl-ethyl]-carbamic acid adamantan-2-yl ester]	–
402	CC(Cc1c[nH]c2ccccc12)(NC(=O)OC1[C@H]2C[C@@H]3C[C@@H](C[C@H]1C3)C2)C(=O)Nc1ccc2ccccc2c1 (stereo partly drawn) [[2-(1H-Indol-3-yl)-1-methyl-1-(naphthalen-2-ylcarbamoyl)-ethyl]-carbamic acid adamantan-2-yl ester]	–
–	CC(Cc1ccc2ccccc2c1)(NC(=O)OC1[C@H]2C[C@@H]3C[C@@H](C[C@H]1C3)C2)C(=O)N(CCc1ccccc1)CC(=O)O (stereo partly drawn) [{[2-(Adamantan-2-yloxycarbonylamino)-2-methyl-3-naphthalen-2-yl-propionyl]-phenethyl-amino}-acetic acid]	Ki [2]: 3010 nM
986	CC(Cc1c[nH]c2ccccc12)(NC(=O)OC1[C@H]2C[C@@H]3C[C@@H](C[C@H]1C3)C2)C(=O)NCC(=O)O (stereo partly drawn) [[2-(Adamantan-2-yloxycarbonylamino)-3-(1H-indol-3-yl)-2-methyl-propionylamino]-acetic acid]	–
134	CC(Cc1cccc2ccccc12)(NC(=O)OC1[C@H]2C[C@@H]3C[C@@H](C[C@H]1C3)C2)C(=O)N(CCc1ccccc1)CC(=O)O (stereo partly drawn) [{[2-(Adamantan-2-yloxycarbonylamino)-2-methyl-3-naphthalen-1-yl-propionyl]-phenethyl-amino}-acetic acid]	–
79	CC(Cc1c[nH]c2ccccc12)(NC(=O)OC1[C@H]2C[C@@H]3C[C@@H](C[C@H]1C3)C2)C(=O)NCCc1ccc([N+](=O)[O-])cc1 (stereo partly drawn) [{2-(1H-Indol-3-yl)-1-methyl-1-[2-(4-nitro-phenyl)-ethylcarbamoyl]-ethyl}-carbamic acid adamantan-2-yl ester]	–
–	CC(Cc1c[nH]c2ccccc12)(NC(=O)OC1[C@H]2C[C@@H]3C[C@@H](C[C@H]1C3)C2)C(=O)NCCc1cccc2ccccc12 (stereo partly drawn) [[2-(1H-Indol-3-yl)-1-methyl-1-(2-naphthalen-1-yl-ethylcarbamoyl)-ethyl]-carbamic acid adamantan-2-yl ester]	Ki [3]: 89 nM
51	CC(Cc1c[nH]c2ccccc12)(NC(=O)OC1[C@H]2C[C@@H]3C[C@@H](C[C@H]1C3)C2)C(=O)NCCc1ccc(Br)cc1 (stereo partly drawn) [[1-[2-(4-Bromo-phenyl)-ethylcarbamoyl]-2-(1H-indol-3-yl)-1-methyl-ethyl]-carbamic acid adamantan-2-yl ester]	–
37	CC(Cc1c[nH]c2ccccc12)(NC(=O)OC1[C@H]2C[C@@H]3C[C@@H](C[C@H]1C3)C2)C(=O)N(CCc1ccc(Cl)cc1Cl)CC(=O)O (stereo partly drawn) [{[2-(Adamantan-2-yloxycarbonylamino)-3-(1H-indol-3-yl)-2-methyl-propionyl]-[2-(2,4-dichloro-phenyl)-ethyl]-amino}-acetic acid]	–
12	CC(Cc1c[nH]c2ccccc12)(C(=O)OC1[C@H]2C[C@@H]3C[C@@H](C[C@H]1C3)C2)C(=O)N(CCc1ccc(Cl)cc1Cl)CC(=O)O (stereo partly drawn) [N-Carboxymethyl-N-[2-(2,4-dichloro-phenyl)-ethyl]-2-(1H-indol-3-ylmethyl)-2-methyl-malonamic acid adamantan-2-yl ester]	–
115	COc1ccc(CCNC(=O)C(C)(Cc2c[nH]c3ccccc23)NC(=O)OC2[C@H]3C[C@@H]4C[C@@H](C[C@H]2C4)C3)cc1 (stereo partly drawn) [{2-(1H-Indol-3-yl)-1-[2-(4-methoxy-phenyl)-ethylcarbamoyl]-1-methyl-ethyl}-carbamic acid adamantan-2-yl ester]	–
